Data set [1] in a line: stability towards oxidation and discoloration on storage exposed to air. To be noted: storage period of 30 days at room temperature, in contrast to other acid addition salts, e.g. maleate and gluconate.
Excerpt: HPLC can be performed after preparation of the salts and repeated after 14 days of storage at room temperature under normal air containing about 21% oxygen.
HPLC analysis can be performed after isolation and drying of flupirtine sulfonate salts and repeated after 14 days of storage at room temperature under open air.
Discolouration can be measured using optical comparison with a standard: the RAL scale of colours (see list). The colour changes during the experiment is compared to this standard list and the appropriate value is noted. The intensity is increasing on a scale ranging from 1 to 10. A higher number means more discolouration. The increase in colour intensity is not proportional but qualitative.
The conditions of data set [2]: cited from earlier work.
Another data set can be described thus: dissolution rate. It is filed as physicochemical.

The structures appear in SMILES notation. Where a name gives a salt, the structure may show the parent alone.

With `CC(=O)O.CCOC(=O)Nc1ccc(NCc2ccc(F)cc2)nc1N` [flupirtine acetate, 2-amino-3-carbethoxyamino-6-(4-fluoro-benzylamino)-pyridine acetate], the “stability towards oxidation and towards discoloration” value in data set [1] was “substantially improved stability”.

Regarding `CCC(=O)O.CCOC(=O)Nc1ccc(NCc2ccc(F)cc2)nc1N` [flupirtine propionate, 2-amino-3-carbethoxyamino-6-(4-fluoro-benzylamino)-pyridine propionate], in data set [1], the “stability towards oxidation and towards discoloration” value is given as “substantially improved stability”.

Regarding `CCOC(=O)Nc1ccc(NCc2ccc(F)cc2)nc1N` [flupirtine maleate], the solubility in water result in data set [2] is “insoluble”. Moreover, in “dissolution rate”, the dissolution rate was 0.088 [μg/mL]/min.

Turning to `CCOC(=O)Nc1ccc(NCc2ccc(F)cc2)nc1N.CS(=O)(=O)O` [flupirtine mesylate, 2-amino-3-carbethoxyamino-6-(4-fluoro-benzylamino)-pyridine mesylate], the “stability towards oxidation and towards discoloration” value in data set [1] is listed as “substantially improved stability”.

(Values after US20120028930A1, “FLUPIRTINE SALTS AND POLYMORPHS” (Bionevia Pharmaceuticals Inc., priority 2010, published 2012).)
